For orientation: IC50 means the midpoint of a concentration-inhibition curve. What is called EC50 is the concentration that produces a half-maximal response. The term Kd denotes the concentration at which binding is half-saturated. Low values mean tighter binding, high ones weaker binding.

The test system of experiment [1] is HEK293T cells. Nature of the experiment: Intracellular cNMP estimation by radioimmunoassay. As to conditions: 100 µM forskolin, 5 min. The format is cell-based, Human. As to the method: Intracellular levels of cyclic nucleotide monophosphates (cNMP) were measured from the cells used for BRET measurements, or […] transfected and treated cells. Cells were lysed in 0.1 N HCl and cNMP was measured by radioimmunoassay as described earlier ([Bakre, […], 2000]).

Experiment [2] concerns HEK293T cells expressing the GAFb sensor. The experiment can be described thus: Cellular BRET assay, GAFb sensor. Type of experiment: cell-based, Human. The settings on record: 100 µM; forskolin 5 min, SNP 2 min, 37 °C.
The target of experiment [3] is T1, PDE5 GAFa(F163A) sensor (Homo sapiens, UniProt O76074, F205A).
T1 construct: We used the F163A mutant GAFa domain of PDE5; expressed in transfected cells; host or cells: HEK293T lysate
The experiment can be described thus: In vitro BRET assay, PDE5 GAFa(F163A) sensor. The format is biochemical. As to conditions: cell lysate, 1 mM cNMP, 37 °C 10 min.

The target of experiment [4] is T2, tandem GAFab domains of CyaB2 (residues S77 to L431, GST fusion) (Nostoc sp. PCC 7120 (Anabaena sp. PCC 7120), UniProt P94182).
T2 sequence (P94182 77-431): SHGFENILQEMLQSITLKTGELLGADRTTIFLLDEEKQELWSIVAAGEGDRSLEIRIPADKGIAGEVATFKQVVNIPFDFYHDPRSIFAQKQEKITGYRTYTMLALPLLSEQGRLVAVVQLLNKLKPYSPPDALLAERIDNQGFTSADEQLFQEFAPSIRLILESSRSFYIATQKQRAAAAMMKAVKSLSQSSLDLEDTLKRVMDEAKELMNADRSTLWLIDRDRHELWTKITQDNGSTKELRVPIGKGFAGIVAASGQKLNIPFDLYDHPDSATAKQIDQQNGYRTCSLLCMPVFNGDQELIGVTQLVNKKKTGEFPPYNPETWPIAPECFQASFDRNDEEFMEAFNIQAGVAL
The experiment can be described thus: biochemical. The format is binding.

The test system of experiment [5] is tandem GAFab domains of CyaB2 (residues S77 to L431, GST fusion). The experiment can be described thus: biochemical. The format is binding, Anabaena sp. PCC 7120. As to conditions: tandem GAFab vs isolated GAFb.
Experiment [6] relates to I308A mutant GAFb domain of CyaB2. Type of experiment: binding, Anabaena sp. PCC 7120.
The subject of experiment [7] is T293A mutant GAFb domain of CyaB2. Nature of the experiment: Cyclic nucleotide binding assay, T293A mutant GAFb. Details: species or system Anabaena sp. PCC 7120.
Experiment [8] has as its target T3, isolated GAFb domain of CyaB2 (residues Leu 270 to Leu 431, GST fusion) (Nostoc sp. PCC 7120 (Anabaena sp. PCC 7120), UniProt P94182).
T3 sequence (P94182 270-431): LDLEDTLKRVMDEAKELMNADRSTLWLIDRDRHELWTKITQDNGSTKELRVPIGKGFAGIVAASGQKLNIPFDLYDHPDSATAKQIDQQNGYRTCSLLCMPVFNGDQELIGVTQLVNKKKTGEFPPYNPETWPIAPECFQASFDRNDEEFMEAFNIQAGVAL
Nature of the experiment: Cyclic nucleotide binding assay (3H-cAMP competition), GST-GAFb.

The test system of experiment [9] is NterGAFab sensor (GFP2-NterGAFab-Rluc). Nature of the experiment: In vitro BRET assay, NterGAFab sensor. Type of experiment: biochemical, Anabaena sp. PCC 7120. The settings on record: cell lysate, 1 mM cNMP.
The subject of experiment [10] is GAFab sensor (GFP2-GAFab-Rluc). Nature of the experiment: In vitro BRET assay, GAFab sensor. The settings on record: cell lysate, 1 mM cNMP. Type of experiment: biochemical, Anabaena sp. PCC 7120. On the technique in general: In BRET a luciferase serves as donor, and the signal depends on an acceptor being close.
Experiment [11] deals with GAFb sensor (GFP2-GAFb-Rluc). The experiment can be described thus: In vitro BRET assay, GAFb sensor. Type of experiment: biochemical, Anabaena sp. PCC 7120. The settings on record: cell lysate, 1 mM cNMP, 37 °C 10 min.
Experiment [12] concerns CyaB1-CyaB2 fusion protein. As to conditions: read-out: EC50, cAMP-mediated activation of a related adenylyl cyclase domain; ref Bruder et al., 2005; cited from earlier work.

Like-named read-outs stand apart in the source and are kept apart here.

T1 sequence (O76074 148-315 F205A): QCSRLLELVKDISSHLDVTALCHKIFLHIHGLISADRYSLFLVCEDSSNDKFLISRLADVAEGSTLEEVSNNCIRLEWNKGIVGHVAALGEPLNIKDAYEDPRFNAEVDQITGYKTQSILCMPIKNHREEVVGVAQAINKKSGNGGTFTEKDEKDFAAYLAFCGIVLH

`C=C[C@@]1(C)CC(=O)[C@]2(O)[C@@]3(C)[C@@H](O)CCC(C)(C)[C@@H]3[C@H](O)[C@H](OC(C)=O)[C@@]2(C)O1` [forskolin]: the “intracellular levels of cAMP” value in experiment [1] is on record as “increased intracellular levels”. The “change in BRET ratios in live cells” value in [2] is “no significant changes”.

On to `Nc1nc2c(ncn2[C@@H]2O[C@@H]3COP(=O)(O)O[C@H]3[C@H]2O)c(=O)[nH]1` [cGMP, guanosine 3′, 5′—cyclic monophosphate], for which the “change in BRET ratio” value was “large increase in the BRET ratio” in experiment [3] and “no change in the BRET ratio” in experiment [11]. Further, the IC50 in experiment [4] (tandem GAFab, ∼1 nM 3H-cAMP, read-out: IC50, competition with 3H-cAMP binding) was found to be 2650 µM; in [8] (isolated GAFb, ∼1 nM 3H-cAMP), 7.6 ± 1.9 µM. Also, the “fold lower affinity compared to the isolated GAFb domain” value in experiment [5] is on record as 348 fold. Further, the results for the “change in affinity vs wild type GAFb” value in experiment [6] and in [7] were “remained unaltered” and “reduction in the affinity”, respectively. For the same compound, the “change in BRET” value in [9] and in experiment [10] was “did not result in a significant alteration” each time.

For `Nc1ncnc2c1ncn2[C@@H]1O[C@@H]2COP(=O)(O)O[C@H]2[C@H]1O` [cAMP, adenosine 3′, 5′—cyclic monophosphate], the “change in BRET ratio” value in experiment [3] is given as “large increase in the BRET ratio”; in experiment [11], “no change in the BRET ratio”. For the same compound, in [4], 0.05 ± 0.02 µM corresponded to half-maximal inhibition (IC50). In [5], the “fold higher affinity than the isolated GAFb domain” value worked out at 16 fold. For the same compound, the “change in affinity vs wild type GAFb” value in experiment [6] is listed as “significant reduction in the affinity”; in experiment [7] it was “no change in the affinity”. In addition, in experiment [12], the EC50 was roughly 1.3 µM. The compound also came in with a Kd in [8] of 0.8 ± 0.2 µM. Further, the “change in BRET” value in [9] and in experiment [10] was “did not result in a significant alteration” in each case.
